# In patent US20120058112A1, “ANTIBODIES” (priority 2009, published 2012):
# Experiments:
# NSCLC [1] = conditions: cancer no longer responding to chemotherapy; cited from earlier work
# NSCLC [2] = conditions: phase II, previously treated NSCLC patients, 2004; cited from earlier work
# [3] = cited from earlier work
# NSCLC [4] = conditions: standard chemotherapy plus EGFR inhibitor; cited from earlier work
# [5] = tested on: human mammary carcinoma which expresses EGFR; conditions: mouse, in vivo; cited from earlier work
# [6] = tested on: carcinoma which does not express the EGF receptor; conditions: mouse, in vivo; cited from earlier work
# IGF1R = assay: Total IGF1R level in xenograft tumors (western blot / ELISA); type: in vivo, nu/nu mice
# Description: (§1) Methods: Total protein (500 microgram) from xenograft samples was isolated at the end of the efficacy study (4 weeks after indicated doses). Samples from 6 independent tumors were analyzed for east treatment. The proteins were western blotted and visualized as described previously (See FIG. 2).
# lung cancer cell lines = assay: Proliferation assay (Cyquant DNA content), adherent (2D) conditions; type: cell-based; conditions: adherent (2D) growth conditions
# Description: Summary: To test the functional effect of inhibiting both EGFR & IGFIR signaling, the growth inhibition under adherent (2D) and non adherent (3D) conditions were evaluated. […] In order to test the effect of this combination under 3D non-adherent conditions, the inventors developed an ultra low attachment plate based proliferation assay.
# Methods: Cells (˜3×10̂3) were seeded in adherent or non-adherent (ultra-low attachment plates; Corning) 96 well plates. […] The media and drugs were slowly replaced every 3 days and at the end of the assay (as indicated) plates were harvested and DNA content was measured using Cyquant assays as described by the manufacturer. The intrinsic growth was calculated based on the increase in DNA content from Day 1 to the end of the assay.
# [7] = tested on: PI3K pathway (P-AKT, PS6K, PS6RP); assay: PI3K pathway western blot in xenograft tumors; set-up: species or system nu/nu mice; conditions: following MK-0646 treatment, previous in vivo data
# Description: as §1
molecule,measurement,setting,value
C#Cc1cccc(Nc2ncnc3cc(OCCOC)c(OCCOC)cc23)c1.Cl [Erlotinib],survival versus placebo,NSCLC [1],about two months longer
same,participants whose tumors responded to treatment,NSCLC [2],12%
same,overall survival benefit,[3]; in vivo,did not help patients live any longer overall
same,time to progression,[3]; placebo group 4.9 months,5.1 months
same,median survival,[3]; placebo group 10.5 months,10.6 months
same,outcome versus chemotherapy alone,NSCLC [4],did no better
O=CN/C=C/c1cc(O)ccc1O [erbstatin],tumor growth,[5],selectively attenuates the growth
same,tumor growth,[6],without effect
COc1cc2ncnc(Nc3ccc(F)c(Cl)c3)c2cc1OCCCN1CCOCC1 [gefitinib],outcome versus chemotherapy alone,NSCLC [4],did no better
MK-0646: humanized antibody that binds IGF-1R as well as the IR/IGF-1 hybrid receptor,total levels of IGF1R,"IGF1R; compared to vehicle or Erlotinib alone, FIG. 6",able to reduce the total levels of IGF1R
same,IGF1R receptor level,"IGF1R; previous in vivo data, NCI-H2122 xenograft",down regulation
same,growth inhibition,lung cancer cell lines,no significant growth inhibition
same,P13K pathway,[7],inhibition was also observed
